Residues, ends and D or L forms follow the SMILES beside them.
Columns and labels:
Aβ1-42 [1] = target: T1, Aβ1-42 (Homo sapiens, UniProt P05067); test: ELISA binding of Aβ1-42 to plate-coated neutrophil proteins and derived peptides; details: 150 nM Aβ1-42; plate coated with protein/peptide at 5 μg/ml; no protease inhibitor
Procedure: CAP37, NE, and CG were purified from human neutrophils and purchased from Athens Research and Technology. BSA was from Sigma Aldrich. CAP37-derived peptides were synthesized by CS Bio Co with a purity >95%. Maxisorp plates from Nunc were coated with 100 μl neutrophil protein, peptide, or BSA diluted at 5 μg/ml in PBS with or without 1 mM PMSF purchased from Sigma Aldrich (for experiments with CAP37, NE, and BSA) or ±125 μM chymostatin purchased from Santa Cruz (for experiments with CG and BSA). Plate coating was done at room temperature for 2 hours with shaking and then at 4° C. overnight. Plates were washed three times in PBST (PBS+0.05% tween), then blocked with 3% BSA in PBST for 1 hour at room temperature with shaking. Plates were washed 3× in PBST, and 150 nM Aβ1-42 (purchased from Bachem and reconstituted in 1 mM NaOH) was added in 0.1% BSA in PBST and incubated 70 minutes at 37° C. Plates were then washed 4 times with PBST and monoclonal mouse anti-amyloid precursor protein/amyloid beta antibody, purchased from Cell Signaling Technology was added at a 1:500 dilution in 1% BSA in PBST and incubated for 1 hour at room temperature with shaking. Plates were washed 4× in PBST and donkey anti mouse HRP-conjugated secondary antibody from Jackson ImmunoResearch Laboratories was added at 1:10,000 in PBST and incubated 1 hour at room temperature with shaking, then washed 4 times in PBST. […] Sulfuric acid (5N) was added to each well to stop the reaction, and the absorbance at 492 nm was read on a Biotek Synergy II plate reader.

[2] = tested on: mouse neuroblastoma cell line Neuro-2a; test: Neurotoxicity assay of Aβ1-42 fibrils/oligomers (trypan blue cell death); format: cell-based; details: oligomers formed 15 min in presence of increasing concentrations; 18 μM Aβ1-42 on cells, 24 hours
Procedure: A mouse neuroblastoma cell line Neuro-2a from ATCC was used for these experiments. Cells were grown and seeded in 96 well plates at 20,000 cells per well in complete medium (MEM α, nucleosides, no phenol red from Gibco, with 10% heat inactivated fetal bovine serum from Gibco, and penicillin/streptomycin from Lonza). At 24 hours after seeding, cells were washed with warmed MEM α, and then incubated in 90 μl MEM α+N2 Supplements+20 μl test sample (Aβ1-42 prepared as described below). Cells were incubated another 24 hours at 37° C., and then dislodged by pipetting up and down vigorously. 10 μl of cells were added to 10 μl trypan blue dye (0.4% solution) from BioRad, mixed and counted in a BioRad TC20 cell counter. The percent of living and dead cells was recorded for each well. In the case of the water and Triton X100 controls, 20 μl MEM α+N2 Supplements was added instead of the test sample and, just before counting the cells, 20 μl of medium was removed and replaced with 20 μl water or Triton X100 at a final concentration of 0.1%.
Monomeric Aβ1-42 (hexafluoroisopropanol treated Aβ1-42) from Bachem was reconstituted at 5 mM in anhydrous DMSO. Untreated Aβ1-42 from CS Bio was also used in these experiments. It was first treated with 1 mM in hexafluoroisopropanol from Sigma Aldrich, incubated 30 min at room temperature, and left open to dry in the fume hood overnight. It was then vacuum desiccated for 1 hour at room temperature. Dry films of Aβ1-42 were stored at −20° C. until use to keep it under a monomeric form. Aβ1-42 from CS Bio was also reconstituted in anhydrous DMSO at 5 mM before use.
To prepare the fibril and oligomer test samples, monomeric Aβ1-42 was placed under conditions favoring either formation of fibrils or oligomers. To form fibrils, 100 μM Aβ1-42 was added to Anaspec fibrillation buffer A±neutrophil protein, and incubated at 37° C. 24 hours before addition to the cells at a final concentration of 18 μM. Neutrophil proteins were used at Aβ/Protein ratios that led to 50% inhibition of fibrillation (IC50), previously determined for each protein in the fibrillation assay. To form oligomers, MEM α+N2 Supplements was used instead of the fibrillation buffer A±increasing concentrations of neutrophil protein or CAP37-derived peptide. Each mixture was then added to a tube containing freshly prepared Aβ1-42 in DMSO at a final concentration of 100 μM, and incubated 15 min at room temperature. These test samples were then tested on the cells at a final concentration of 18 μM.
Oligomers were formed by incubating 100 μM Aβ1-42 in MEMα+N2 Supplements at 4° C. for 3 days. […] Finally, these oligomers were added to neurons at a final concentration of 18 μM, and percent cell death was measured at 24 h.

Aβ1-42 [3] = target: T1, Aβ1-42; test: Amyloid Beta (1-42) Thioflavin T fibrillation (aggregation) assay; format: biochemical; parameters: used to monitor the formation of Aβ1-42 peptide fibrils; purchased Anaspec
Procedure: The Amyloid Beta (1-42) Thioflavin T Aggregation Kit was purchased from Anaspec and used to monitor the formation of Aβ1-42 peptide fibrils, according to the manufacturer's instructions, with some modifications. Thioflavin T dye was diluted to 250 μM in fibrillation buffer A and kept in the dark until use. […] Neutrophil proteins were tested in the absence and presence of protease inhibitors. […] Chymostatin was dissolved in DMSO and used at 125 μM final concentration in reactions with CG. Reactions were pipetted up and down twice in the wells with a multichannel pipette to ensure mixing, and fluorescence (ΔEX=440 nm, ΔEm=485 nm) was read every 5 minutes for 3 hours on a BioTek Synergy 2 plate reader with Gen 5 software, with a sensitivity set at 65.

Aβ1-42 [4] = target: T1, Aβ1-42; test: Enzyme activity assay (cleavage of Aβ1-42, MALDI-TOF); format: biochemical; parameters: used to monitor the formation of Aβ1-42 peptide fibrils; purchased Anaspec
Procedure: Aβ1-42 treated with hexafluoroisopropanol was purchased from Bachem and reconstituted in anhydrous DMSO at 5 mM. Reactions were set up with increasing concentrations of enzyme (CAP37, NE or CG) and 10 μM Aβ1-42 substrate in PBS, and incubated at 37° C. for 1 hour. Reactions were stopped by the addition of acetonitrile and trifluoroacetic acid (TFA) to final concentrations of 7.5% and 0.5% respectively. Internal standard (Aβ40-1 from Bachem) dissolved in 10% acetic acid was added to a final concentration of 8 μg/ml. A 10 μl aliquot of this mixture was desalted on a C18 OMIX tip from Agilent Technologies. First, the C18 resin was rinsed with 2×10 μl of 50% methanol, then 2×10 μl of equilibration buffer (5% acetonitrile 0.5% TFA), then the sample was applied to the resin by pipetting 10 times through the resin, which was then washed twice with equilibration buffer and eluted with 75% acetonitrile 0.1% TFA.
Desalted samples were analyzed by Matrix Assisted Laser Desorption/Ionization-Time of Flight mass spectrometry (MARLDI-TOF) using a Bruker Ultraflex II instrument and Flex Control Software. […] Chromatographs were analyzed with Flex Analysis software. […] The ratio of the Aβ1-42 peak intensity divided by the internal standard peak intensity was calculated for each spot, and triplicate spots were averaged to determine the amount of uncleaved Aβ in each enzymatic reaction.

T1 sequence (P05067 672-713 limits assumed): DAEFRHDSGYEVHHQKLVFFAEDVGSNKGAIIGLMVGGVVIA

In the case of `CC(C)C[C@H](NC(=O)[C@H](CCCNC(=N)N)NC(=O)CNC(=O)CNC(=O)[C@H](CO)NC(=O)[C@H](CCCNC(=N)N)NC(=O)[C@H](Cc1c[nH]c2ccccc12)NC(=O)[C@H](CO)NC(=O)CNC(=O)[C@H](Cc1c[nH]c2ccccc12)NC(=O)CNC(=O)[C@H](C)NC(=O)[C@@H](NC(=O)[C@H](CCC(N)=O)NC(=O)[C@H](CS)NC(=O)[C@H](CCCNC(=N)N)NC(=O)[C@@H](NC(=O)CN)[C@@H](C)O)C(C)C)C(=O)N[C@@H](CO)C(=O)N[C@@H](CCCNC(=N)N)C(=O)N[C@@H](Cc1ccccc1)C(=O)N1CCC[C@H]1C(=O)N[C@@H](CCCNC(=N)N)C(=O)N[C@@H](Cc1ccccc1)C(=O)N[C@H](C(=O)N[C@@H](CC(N)=O)C(=O)N[C@H](C(=O)O)C(C)C)C(C)C` [120-146 WR] (H-GTRCQVAGWGSWRSGGRLSRFPRFVNV-OH; N-terminus and C-terminus assumed), the “binding of Aβ1-42” value (Aβ1-42 [1]) is reported as “binds”, the “effect on Aβ1-42 oligomer toxicity” value [2] is reported as “significantly inhibited” and the IC50 (Aβ1-42 [3]; at time of complete fibrillation of Aβ1-42 control, no protease inhibitor) is reported as roughly 1000 nM. For the same compound, the “inhibition of Aβ1-42 fibrillation (in words)” value (Aβ1-42 [3]; increasing concentrations of peptide, Rfu) was “able to inhibit fibrillation”, the “molar ratio inhibitor/Aβ1-42 corresponding to IC50 of fibrillation” value (Aβ1-42 [3]; ratio at IC50) was 1/10 and the “enzymatic activity on Aβ1-42” value (Aβ1-42 [4]) was “do not have enzymatic activities”.
